pIC50: −log10 of the molar value.
Experiments:
[1] = target: T1, Bone morphogenetic protein 1 (Homo sapiens, UniProt P13497); assay: Inhibition of C-terminal FLAG-6x-His epitope tagged and N-terminal human RAGE signal sequence tagged human BMP1 (23 to 721 amino acids) expressed in CHO-E1 cells pre-incubated for 10 mins before promyostatin peptide substrate addition and measured after 30 mins using 50 nM BMP1 by FRET based assay; format: cell-based
T1 sequence (P13497 whole entry): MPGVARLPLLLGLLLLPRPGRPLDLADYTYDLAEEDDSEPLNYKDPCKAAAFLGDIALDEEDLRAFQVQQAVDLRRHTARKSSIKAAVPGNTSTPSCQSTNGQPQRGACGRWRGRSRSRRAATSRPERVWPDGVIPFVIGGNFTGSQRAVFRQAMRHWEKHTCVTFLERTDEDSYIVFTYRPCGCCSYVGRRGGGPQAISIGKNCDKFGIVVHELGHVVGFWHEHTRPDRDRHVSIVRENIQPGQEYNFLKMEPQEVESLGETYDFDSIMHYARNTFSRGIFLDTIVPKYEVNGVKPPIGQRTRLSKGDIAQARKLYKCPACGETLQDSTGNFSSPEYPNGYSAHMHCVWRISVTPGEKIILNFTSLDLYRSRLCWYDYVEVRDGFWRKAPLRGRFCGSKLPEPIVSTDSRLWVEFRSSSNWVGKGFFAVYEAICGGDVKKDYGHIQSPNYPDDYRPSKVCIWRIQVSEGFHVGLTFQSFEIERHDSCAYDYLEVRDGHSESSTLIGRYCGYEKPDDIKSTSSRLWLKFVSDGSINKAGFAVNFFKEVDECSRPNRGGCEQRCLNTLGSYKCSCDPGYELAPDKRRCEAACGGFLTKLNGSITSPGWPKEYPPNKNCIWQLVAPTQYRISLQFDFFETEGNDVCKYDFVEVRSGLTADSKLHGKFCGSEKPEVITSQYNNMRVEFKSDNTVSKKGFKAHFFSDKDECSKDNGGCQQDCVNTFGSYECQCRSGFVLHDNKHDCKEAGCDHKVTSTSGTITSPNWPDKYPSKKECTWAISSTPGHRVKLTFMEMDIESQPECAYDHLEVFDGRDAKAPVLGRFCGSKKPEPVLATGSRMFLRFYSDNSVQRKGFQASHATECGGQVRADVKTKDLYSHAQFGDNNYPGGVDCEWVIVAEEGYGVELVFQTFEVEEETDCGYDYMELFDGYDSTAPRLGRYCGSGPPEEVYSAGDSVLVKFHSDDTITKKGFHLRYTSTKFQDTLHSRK

[2] = target: T1, Bone morphogenetic protein 1; assay: Inhibition of C-terminal FLAG-6x-His epitope tagged and N-terminal human RAGE signal sequence tagged human BMP1 (23 to 721 amino acids) expressed in CHO-E1 cells pre-incubated for 10 mins before promyostatin peptide substrate addition and measured after 60 mins using 0.5 nM BMP1 by FRET based assay; format: cell-based
[3] = Reduction in PICP levels in human cardiac fibroblasts incubated for 24 to 48 hrs by ELISA; format: functional
In short: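 Human cardiac fibroblasts (passage 6 or below) were seeded at 10,000 to 15,000 cells per well in 96-well plates. The next day they were treated in ficoll crowding EMEM with 100 μM ascorbic acid and under 0.3% DMSO, for 24 to 48 hr at 37° C. Procollagen I C-terminal propeptide in the medium was measured with a Quidel ELISA. IC50 came from fitting levels relative to untreated controls to a log(inhibitor)-response equation in GraphPad Prism.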

Tolloid-like protein 1 = Tolloid-like protein 1 (Homo sapiens, UniProt O43897, I156V/N221S/V284A); assay: Inhibition of recombinant human TLL1 I156V/N221S/V284A mutant expressed in CHOE1A cells pre-incubated for 10 mins before promyostatin peptide substrate addition and measured after 60 mins by FRET based assay; format: cell-based
Tolloid-like protein 2 = target: T2, Tolloid-like protein 2 (Homo sapiens, UniProt Q9Y6L7); assay: Inhibition of C-terminal Avi-6x-His epitope tagged and N-terminal human RAGE signal sequence tagged recombinant human TLL2 (26 to 1015 amino acids) expressed in CHOE1A cells incubated for 60 mins with promyostatin peptide substrate by FRET based assay; format: cell-based
T2 sequence (Q9Y6L7 whole entry): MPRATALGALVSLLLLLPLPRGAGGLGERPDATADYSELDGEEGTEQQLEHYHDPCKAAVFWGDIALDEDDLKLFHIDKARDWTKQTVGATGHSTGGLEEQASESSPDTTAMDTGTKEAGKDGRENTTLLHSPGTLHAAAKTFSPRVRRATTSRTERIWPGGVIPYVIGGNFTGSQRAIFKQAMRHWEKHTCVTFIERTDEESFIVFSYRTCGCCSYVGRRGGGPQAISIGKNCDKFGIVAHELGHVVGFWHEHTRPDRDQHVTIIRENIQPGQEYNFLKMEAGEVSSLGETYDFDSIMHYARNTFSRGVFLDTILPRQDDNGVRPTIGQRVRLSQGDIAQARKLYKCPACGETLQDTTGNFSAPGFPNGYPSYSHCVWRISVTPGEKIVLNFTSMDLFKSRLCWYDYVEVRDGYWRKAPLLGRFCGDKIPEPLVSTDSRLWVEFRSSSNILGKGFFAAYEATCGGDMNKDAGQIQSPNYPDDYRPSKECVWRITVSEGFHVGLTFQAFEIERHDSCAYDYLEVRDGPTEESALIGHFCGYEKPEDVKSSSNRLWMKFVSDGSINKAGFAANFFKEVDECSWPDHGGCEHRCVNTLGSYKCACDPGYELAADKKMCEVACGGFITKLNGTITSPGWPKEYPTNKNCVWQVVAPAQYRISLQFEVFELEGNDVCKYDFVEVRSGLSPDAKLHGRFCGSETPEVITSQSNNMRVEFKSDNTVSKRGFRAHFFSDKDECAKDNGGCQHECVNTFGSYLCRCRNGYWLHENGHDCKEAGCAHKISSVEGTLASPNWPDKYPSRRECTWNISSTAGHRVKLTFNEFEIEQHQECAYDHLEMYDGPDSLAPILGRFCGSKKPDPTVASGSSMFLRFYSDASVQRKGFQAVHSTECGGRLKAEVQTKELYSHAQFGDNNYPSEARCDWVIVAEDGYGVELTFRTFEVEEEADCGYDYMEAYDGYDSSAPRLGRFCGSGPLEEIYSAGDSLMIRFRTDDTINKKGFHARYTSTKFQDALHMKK

Chain of Tolloid-like protein 1 (O43897 148-1013 I156V/N221S/V284A limits assumed): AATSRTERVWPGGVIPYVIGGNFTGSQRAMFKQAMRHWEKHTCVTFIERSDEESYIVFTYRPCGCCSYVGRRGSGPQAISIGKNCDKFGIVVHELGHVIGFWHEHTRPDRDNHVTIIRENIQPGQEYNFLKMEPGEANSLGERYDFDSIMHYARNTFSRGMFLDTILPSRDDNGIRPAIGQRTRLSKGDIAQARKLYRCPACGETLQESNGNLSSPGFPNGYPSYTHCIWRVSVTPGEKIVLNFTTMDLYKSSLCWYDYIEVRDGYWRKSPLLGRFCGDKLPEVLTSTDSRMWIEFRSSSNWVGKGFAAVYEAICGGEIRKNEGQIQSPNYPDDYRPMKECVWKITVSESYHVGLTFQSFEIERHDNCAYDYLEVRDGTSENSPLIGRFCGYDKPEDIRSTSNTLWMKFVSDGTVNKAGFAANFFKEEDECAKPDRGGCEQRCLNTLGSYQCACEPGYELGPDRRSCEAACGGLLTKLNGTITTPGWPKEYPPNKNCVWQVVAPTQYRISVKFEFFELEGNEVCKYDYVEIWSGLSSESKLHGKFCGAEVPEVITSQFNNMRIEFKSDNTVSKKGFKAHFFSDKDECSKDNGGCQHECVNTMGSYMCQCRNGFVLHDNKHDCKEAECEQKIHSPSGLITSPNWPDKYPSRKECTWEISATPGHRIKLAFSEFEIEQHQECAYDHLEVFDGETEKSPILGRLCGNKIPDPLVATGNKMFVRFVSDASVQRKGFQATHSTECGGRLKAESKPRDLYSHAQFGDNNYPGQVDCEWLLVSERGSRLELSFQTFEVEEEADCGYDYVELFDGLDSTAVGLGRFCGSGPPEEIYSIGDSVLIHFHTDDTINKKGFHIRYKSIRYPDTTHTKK

Row | SMILES | pIC50 [1] | pIC50 [2] | pIC50 [3] | pIC50 (Tolloid-like protein 1) | pIC50 (Tolloid-like protein 2)
1 | CCCCC[C@@H](C(=O)NCNC(=O)c1ccc(-c2cc(OCC)cc(C(=O)NCP(=O)(O)O)c2)o1)[C@@H](CC)N(O)C=O | > 6.70 | > 6.90 | > 5.40 | > 6.40 | > 6.10
2 | CCOc1cc(C(=O)O)c(O)c(-c2ccc(C(=O)NCNC(=O)[C@H](CCc3ccccc3)[C@@H](CC)N(O)C=O)o2)c1 | > 6.70 | > 6.90 | > 5.40 | > 6.40 | > 6.10
3 | CCCCC[C@H](CN(O)C=O)C(=O)NCNC(=O)c1ccc(-c2cccc(P(=O)(O)OC)c2)o1 | > 6.70 | > 6.90 | > 5.40 | > 6.40 | > 6.10
4 | CCCCC[C@H](CN(O)C=O)C(=O)NCNC(=O)c1ccc(-c2cccc(P(=O)(O)O)c2)o1 | > 6.70 | > 6.90 | > 5.40 | > 6.40 | > 6.10
5 | CCCCC[C@@H](C(=O)NCNC(=O)c1ccc(-c2ccc(C(=O)N[C@@H](CC(=O)O)C(=O)O)cc2)o1)[C@@H](CC)N(O)C=O | > 6.70 | > 6.90 | > 5.40 | > 6.40 | > 6.10
6 | CCOc1cc(-c2ccc(C(=O)NCNC(=O)[C@H](CCc3ccc4ccccc4c3)[C@@H](CC)N(O)C=O)o2)ccc1C(=O)N[C@@H](CC(=O)O)C(=O)O | > 6.70 | > 6.90 | > 5.40 | > 6.40 | > 6.10
7 | CC[C@H]([C@@H](CCc1ccc(F)cc1F)C(=O)NCNC(=O)c1ccc(-c2cc(OCC(=O)O)cc(C(=O)O)c2O)o1)N(O)C=O | > 6.70 | > 6.90 | > 5.40 | > 6.40 | > 6.10
8 | CCCCC[C@H](CN(O)C=O)C(=O)NCNC(=O)c1ccc(-c2cccc(SC)c2)o1 | > 6.70 | > 6.90 | > 5.40 | > 6.40 | > 6.10
9 | CCCCC[C@@H](C(=O)NCNC(=O)c1ccc(-c2cc(OCC)cc(P(=O)(O)OC)c2)o1)[C@@H](CC)N(O)C=O | > 6.70 | > 6.90 | > 5.40 | > 6.40 | > 6.10
10 | CCCCC[C@@H](C(=O)NCNC(=O)c1ccc(-c2cc(OCC)cc(C(=O)NC(CO)(CO)CO)c2)o1)[C@@H](CC)N(O)C=O | > 6.70 | > 6.90 | > 5.40 | > 6.40 | > 6.10
11 | CCCCC[C@H](CN(O)C=O)C(=O)NCNC(=O)c1ccc(-c2cccc(P(C)(=O)O)c2)o1 | > 6.70 | > 6.90 | > 5.40 | > 6.40 | > 6.10
12 | CCCCC[C@@H](C(=O)NCNC(=O)c1ccc(-c2cc(OCC)cc(C(=O)N[C@H](CC(=O)O)C(=O)O)c2)o1)[C@@H](CC)N(O)C=O | > 6.70 | > 6.90 | > 5.40 | > 6.40 | > 6.10
13 | CCCCC[C@H](CN(O)C=O)C(=O)NCNC(=O)c1ccc(-c2ccc3cnn(C)c3c2)o1 | > 6.70 | > 6.90 | > 5.40 | > 6.40 | > 6.10
